Patent publication US6482921B1, “Uridyl peptide antibiotic (UPA) derivatives, their synthesis and use” (Essential Therapeutics, Inc., priority 1999, dated 2002)
Values after ≈ are worked out from the molar mass of the structure shown.

Tests used:
Assay type in all cases: cell-based
[1] = tested on: Pseudomonas aeruginosa PAM 1020; test: MIC broth microdilution, P. aeruginosa PAM 1020 (wild type); settings: P. aeruginosa PAM 1020
[2] = tested on: Pseudomonas aeruginosa PAM 1154; test: MIC broth microdilution, P. aeruginosa PAM 1154 (OprM::Hg); settings: P. aeruginosa PAM 1154 OprM::Hg
[3] = tested on: Pseudomonas aeruginosa PAM 1135; test: MIC broth microdilution, P. aeruginosa PAM 1135 (high level UPA resistance); settings: P. aeruginosa PAM 1135 UPA1^r
[4] = tested on: Pseudomonas aeruginosa PAM 1323; test: MIC broth microdilution, P. aeruginosa PAM 1323 (medium level UPA resistance)
Escherichia Coli MC 4100 = test: MIC broth microdilution, E. coli MC 4100 (wild type); settings: E. coli MC 4100
[5] = tested on: Escherichia Coli MC 4100 AcrAB; test: MIC broth microdilution, E. coli MC 4100 AcrAB (ΔAcrAB); settings: E. coli AcrAB
[6] = tested on: Escherichia Coli MC 4100 AcrAB UPA3r; test: MIC broth microdilution, E. coli MC 4100 AcrAB UPA3r (ΔAcrAB, UPA resistant); settings: E. coli AcrAB UPA3^r
[7] = tested on: Staphylococcus aureus ATCC 29213; test: MIC broth microdilution, S. aureus ATCC 29213 (wild type); settings: S. aureus ATCC 29213
[8] = tested on: Staphylococcus aureus 8325-4; test: MIC broth microdilution, S. aureus 8325-4 (wild type); settings: S. aureus 8325-4
[9] = tested on: Pasteurella multocida pm002; test: MIC broth microdilution, P. multocida pm002 (wild type)
[10] = tested on: Haemophilus influenzae hf032; test: MIC broth microdilution, H. influenzae hf032; settings: strain hf032, Haemophilus test medium
Experimental: (§1) In a second panel, Table 5, compounds of this invention were tested for their antimicrobial activity against the bacterial strains H. influenzae hf032 and S. pneumoniae ATCC 49629.
(§2) As above, a broth microdilution assay was used but the culture media were varied according to the specific growth requirements of each bacteria according to the recommendations of the NCCLS. For instance, susceptibility testing for H, influenzae was performed using Haemophilus test medium (HTM-Remel, cat. #20-042). For S. pneumoniae, cation adjusted MHB (CAMHB) containing 4% lysed horse blood was used. MICs were determined as described above.

[11] = tested on: Streptococcus pneumoniae ATCC 49619; test: MIC broth microdilution, S. pneumoniae ATCC 49619; settings: ATCC 49619, CAMHB containing 4% lysed horse blood
Experimental: as §1, §2

[12] = tested on: Mycobacterium tuberculosis H37Rv; test: MIC agar dilution, M. tuberculosis H37Rv
[13] = tested on: Mycobacterium tuberculosis TN913; test: MIC agar dilution, M. tuberculosis TN913

CSCCC(NC(=O)NC(Cc1ccc(O)cc1)C(=O)O)C(=O)NC(C(=O)NCC1CC(O)C(n2ccc(=O)[nH]c2=O)O1)C(C)N(C)C(=O)C(C)N [Compound 115, 1-[5′[(2S,3S)-N^3-L-Alanyl-N^2-[N-[[(1S)-1-carboxy-4-hydroxyphenethyl)-carbamoyl]-L-methionyl]-N^3-methyl-2,3-diaminobutyramido]-3′,5′-dideoxy-α-L-arabinofuranosyl]uracil]
MIC (μg/ml) Broth microdilution [1]: 4 µg/mL (≈ 5.33 µM) | MIC (μg/ml) Broth microdilution [2]: 2 µg/mL (≈ 2.66 µM) | MIC (μg/ml) Broth microdilution [3]: >512 µg/mL | MIC (μg/ml) Broth microdilution [4]: 256 µg/mL (≈ 341 µM) | MIC (μg/ml) Broth microdilution (Escherichia Coli MC 4100): >512 µg/mL | MIC (μg/ml) Broth microdilution [5]: 8 µg/mL (≈ 10.7 µM) | MIC (μg/ml) Broth microdilution [6]: 32 µg/mL (≈ 42.6 µM) | MIC (μg/ml) Broth microdilution [7]: >512 µg/mL | MIC (μg/ml) Broth microdilution [8]: >512 µg/mL | MIC (μg/ml) Broth microdilution [9]: 128 µg/mL (≈ 170 µM) | MIC Broth microdilution H. influenzae [10]: 16 µg/mL (≈ 21.3 µM) | MIC Broth microdilution S. pneumoniae [11]: >512 µg/mL | MIC H37RV (SENSITIVE) [12]: >30 µg/mL | MIC TN913 (SENSITIVE) [13]: >30 µg/mL
